Here are results for 19 compounds from ChEMBL document CHEMBL1128613, “A water soluble benzazepine cholecystokinin-B receptor antagonist” (Bioorg Med Chem Lett, 1995).

The structures appear in SMILES notation.

The target of the assay is T1, Cholecystokinin receptor type A (Cavia porcellus, UniProt Q63931).
T1 sequence (Q63931 whole entry): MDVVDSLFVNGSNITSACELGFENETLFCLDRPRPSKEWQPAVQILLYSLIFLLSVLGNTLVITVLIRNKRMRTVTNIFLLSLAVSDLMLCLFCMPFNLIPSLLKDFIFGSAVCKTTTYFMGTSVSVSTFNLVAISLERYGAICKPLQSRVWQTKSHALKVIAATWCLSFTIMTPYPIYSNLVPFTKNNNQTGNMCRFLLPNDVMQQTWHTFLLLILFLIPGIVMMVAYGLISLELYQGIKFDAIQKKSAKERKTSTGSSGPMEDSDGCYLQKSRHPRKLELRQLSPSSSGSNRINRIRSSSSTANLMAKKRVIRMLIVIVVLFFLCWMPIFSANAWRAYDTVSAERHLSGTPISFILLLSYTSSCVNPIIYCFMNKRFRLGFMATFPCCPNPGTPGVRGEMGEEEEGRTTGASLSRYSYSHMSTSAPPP
As to the kind of experiment: Binding activity towards cholecystokinin-A (CCK-A) receptor in guinea pig pancreas.
Consider `Cc1ccc2c(c1)N(CC(=O)NC(C)(C)C)C(=O)[C@H](NC(=O)Nc1cccc(-c3nnn[nH]3)c1)C[C@@H]2C(C)C`, for which the IC50 – broadly, the point on the concentration scale where inhibition reaches its midpoint – amounted to 250 nM.
In turn, `Cc1ccc([C@H]2C[C@@H](NC(=O)Nc3cccc(-c4nn[nH]n4)c3)C(=O)N(CC(=O)NC(C)(C)C)c3cc(C)ccc32)cc1` had an IC50 of 600 nM.
`CCS(=O)(=O)NC(=O)c1cccc(NC(=O)N[C@@H]2C[C@H](c3ccccc3)c3ccc(C)cc3N(CC(=O)NC(C)(C)C)C2=O)c1` yielded an IC50 of 1100 nM.
In the case of `Cc1ccc2c(c1)N(CC(=O)NC(C)(C)C)C(=O)[C@H](NC(=O)Nc1cccc(-c3nnn[nH]3)c1)C[C@@H]2C1CCCCC1`, the IC50 stood at 490 nM.
The compound `Cc1ccc2c(c1)N(CC(=O)NC(C)(C)C)C(=O)[C@H](NC(=O)Nc1cccc(C(=O)NS(C)(=O)=O)c1)C[C@@H]2C1CCCCC1` showed an IC50 of 520 nM.
On to `COC(=O)c1cccc(NC(=O)N[C@@H]2C[C@H](c3ccccc3)c3ccc(C)cc3N(CC(=O)NC(C)(C)C)C2=O)c1`, for which the IC50 amounted to 310 nM.
As to `Cc1ccc2c(c1)N(CC(=O)NC(C)(C)C)C(=O)[C@H](NC(=O)Nc1cccc(-c3nnn[nH]3)c1)C[C@@H]2Cc1ccccc1`, the IC50 came to 34 nM.
In the case of `Cc1ccc2c(c1)N(CC(=O)NC(C)(C)C)C(=O)[C@H](NC(=O)Nc1cccc(C(=O)O)c1)C[C@@H]2c1ccccc1` it was 4200 nM; in that of `Cc1ccc2c(c1)N(CC(=O)NC(C)(C)C)C(=O)[C@H](NC(=O)Nc1cccc(-c3nnn[nH]3)c1)C[C@@H]2c1ccccc1`, 620 nM; in that of `Cc1ccc2c(c1)N(CC(=O)NC(C)(C)C)C(=O)[C@H](NC(=O)Nc1cccc(C(=O)NS(=O)(=O)Cc3ccccc3)c1)C[C@@H]2c1ccccc1`, 730 nM.
For `Cc1ccc2c(c1)N(CC(=O)NC(C)(C)C)C(=O)[C@H](NC(=O)Nc1cccc(C(=O)NS(=O)(=O)C(F)(F)F)c1)C[C@@H]2c1ccccc1`, the half-inhibitory concentration (IC50) was 320 nM.
Under `Cc1ccc2c(c1)N(CC(=O)NC(C)(C)C)C(=O)[C@H](NC(=O)Nc1cccc(C(=O)NS(C)(=O)=O)c1)C[C@@H]2c1ccccc1` stands 970 nM.
On to `COC(=O)c1cccc(NC(=O)N[C@@H]2C[C@H](C3CCCCC3)c3ccc(C)cc3N(CC(=O)NC(C)(C)C)C2=O)c1`, for which the IC50 was 370 nM.
Compound `Cc1ccc2c(c1)N(CC(=O)NC(C)(C)C)C(=O)[C@H](NC(=O)Nc1cccc(C(=O)NS(=O)(=O)c3ccccc3C)c1)C[C@@H]2c1ccccc1` showed an IC50 of 1300 nM.
`Cc1ccc2c(c1)N(CC(=O)NC(C)(C)C)C(=O)[C@H](NC(=O)Nc1cccc(C(=O)Nc3nnn[nH]3)c1)C[C@@H]2c1ccccc1` gave an IC50 of 1000 nM.
As to `Cc1ccc2c(c1)N(CC(=O)NC(C)(C)C)C(=O)[C@H](NC(=O)Nc1cccc(-c3nnn[nH]3)c1)C[C@@H]2CC1CCCCC1`, the IC50 amounted to 220 nM.
`Cc1ccc2c(c1)N(CC(=O)NC(C)(C)C)C(=O)[C@H](NC(=O)Nc1cccc(C(=O)NS(=O)(=O)c3ccccc3)c1)C[C@@H]2c1ccccc1` showed an IC50 of 1300 nM.
Consider `Cc1ccc2c(c1)N(CC(=O)NC(C)(C)C)C(=O)[C@H](NC(=O)Nc1cccc(C(=O)O)c1)C[C@@H]2C1CCCCC1` (stereo in doubt; 2), for which the IC50 worked out at 1400 nM.
On to `Cc1ccc2c(c1)N(CC(=O)NC(C)(C)C)C(=O)[C@H](NC(=O)Nc1cccc(C(=O)O)c1)C[C@@H]2C1CCCCC1` (stereo in doubt; 5k), for which the IC50 was 2300 nM.
